{
  "source": "ChEMBL document CHEMBL3046183",
  "about": "“2,4,6-Trihydroxybenzaldehyde as a potent antidiabetic agent alleviates postprandial hyperglycemia in normal and diabetic rats” (Med Chem Res, 2011)",
  "key": {"[1]": {"test": "Inhibition of alpha-glucosidase (unknown origin) using PNPG as substrate assessed as p-nitrophenol release from substrate after 30 min", "design": "species or system Homo sapiens"}, "Rattus norvegicus [2]": {"system": "Rattus norvegicus", "test": "Antihyperglycemic activity in glucose treated Rattus norvegicus Sprague-Dawley (rat) assessed as reduction of postprandial blood glucose level at 50 mg/kg administered intragastrically immediately after glucose load after 30 min (reference value: 95.7 to 182.3 mg/dl)", "format": "functional", "settings": "route intragastric"}, "Rattus norvegicus [3]": {"system": "Rattus norvegicus", "test": "Antihyperglycemic activity in maltose treated Rattus norvegicus Sprague-Dawley (rat) assessed as reduction of postprandial blood glucose level at 50 mg/kg administered intragastrically immediately after maltose load after 2 hr", "format": "functional, organism-based", "design": "dose 50 mg/kg"}, "Rattus norvegicus [4]": {"system": "Rattus norvegicus", "test": "Antidiabetic activity in Rattus norvegicus Sprague-Dawley (rat) streptozotocin-induced diabetic model assessed as reduction of blood glucose level at 50 mg/kg administered intragastrically after 30 min (reference value: 378.2 to 594.7 mg/dl)", "format": "functional", "settings": "route intragastric"}, "Rattus norvegicus [5]": {"system": "Rattus norvegicus", "test": "Antidiabetic activity in maltose loaded Rattus norvegicus Sprague-Dawley (rat) streptozotocin-induced diabetic model assessed as reduction of blood glucose level at 50 mg/kg administered intragastrically immediately after maltose load after 2 hr", "format": "functional, organism-based", "design": "dose 50 mg/kg"}, "Rattus norvegicus [6]": {"system": "Rattus norvegicus", "test": "Antihyperglycemic activity in glucose treated Rattus norvegicus Sprague-Dawley (rat) assessed as reduction of postprandial blood glucose level at 20 mg/kg administered intragastrically immediately after glucose load after 30 min (reference value: 95.7 to 182.3 mg/dl)", "format": "functional", "settings": "route intragastric"}, "[7]": {"system": "Radical scavenging activity", "test": "Antioxidant activity assessed as DPPH radical scavenging activity after 30 min", "format": "functional"}, "Homo sapiens": {"species": "Homo sapiens", "test": "Noncompetitive inhibition of alpha-glucosidase (unknown origin) using PNPG as substrate by Lineweaver-Burk plot analysis"}, "Rattus norvegicus [8]": {"system": "Rattus norvegicus", "test": "Antidiabetic activity in maltose loaded Rattus norvegicus Sprague-Dawley (rat) streptozotocin-induced diabetic model assessed as reduction of blood glucose level at 20 mg/kg administered intragastrically immediately after maltose load after 2 hr", "format": "functional, organism-based", "design": "dose 20 mg/kg"}, "Rattus norvegicus [9]": {"system": "Rattus norvegicus", "test": "Antihyperglycemic activity in maltose treated Rattus norvegicus Sprague-Dawley (rat) assessed as reduction of postprandial blood glucose level at 20 mg/kg administered intragastrically immediately after maltose load after 2 hr", "format": "functional, organism-based", "design": "dose 20 mg/kg"}, "Rattus norvegicus [10]": {"system": "Rattus norvegicus", "test": "Antidiabetic activity in Rattus norvegicus Sprague-Dawley (rat) streptozotocin-induced diabetic model assessed as reduction of blood glucose level at 20 mg/kg administered intragastrically after 30 min (reference value: 378.2 to 594.7 mg/dl)", "format": "functional", "settings": "route intragastric"}},
  "note": "The source made the active and inactive calls. No cut-off for these calls is given here.",
  "data": [
    {"smiles": "COc1cc(OC)c(C=O)c(OC)c1", "note": "[2,4,6-TRIMETHOXYBENZALDEHYDE]", "values": [
      {"measurement": "IC50", "setting": "[1]", "value": 2380, "unit": "µM"}
    ]},
    {"smiles": "C[C@H]1O[C@H](O[C@H]2[C@H](O)[C@@H](O)[C@@H](O[C@H]3[C@H](O)[C@@H](O)C(O)O[C@@H]3CO)O[C@@H]2CO)[C@H](O)[C@@H](O)[C@@H]1N[C@H]1C=C(CO)[C@@H](O)[C@H](O)[C@H]1O", "note": "(some centres undefined) [ACARBOSE]", "values": [
      {"measurement": "Activity", "setting": "Rattus norvegicus [2]", "value": 97.5, "unit": "mg/dL"},
      {"measurement": "Activity", "setting": "Rattus norvegicus [3]", "value": "Active"},
      {"measurement": "Activity", "setting": "Rattus norvegicus [4]", "value": 372.1, "unit": "mg/dL"},
      {"measurement": "Activity", "setting": "Rattus norvegicus [5]", "value": "Active"}
    ]},
    {"smiles": "O=C(O)c1cc(O)c(O)c(O)c1", "note": "[GALLIC ACID]", "values": [
      {"measurement": "IC50", "setting": "[1]", "value": 112, "unit": "µM"}
    ]},
    {"smiles": "O=C(OC[C@H]1O[C@@H](OC(=O)c2cc(O)c(O)c(O)c2)[C@H](OC(=O)c2cc(O)c(O)c(O)c2)[C@@H](OC(=O)c2cc(O)c(O)c(O)c2)[C@@H]1OC(=O)c1cc(O)c(O)c(O)c1)c1cc(O)c(O)c(O)c1", "note": "[PENTAGALLOYL GLUCOSE]", "values": [
      {"measurement": "IC50", "setting": "[1]", "value": 0.39, "unit": "µM"}
    ]},
    {"smiles": "O=Cc1c(O)cc(O)cc1O", "note": "[PHLOROGLUCINALDEHYDE]", "values": [
      {"measurement": "Activity", "setting": "Rattus norvegicus [6]", "value": 96.5, "unit": "mg/dL"},
      {"measurement": "IC50", "setting": "[7]", "value": 71.4, "unit": "µM"},
      {"measurement": "inhibition", "setting": "Homo sapiens", "value": "Active"},
      {"measurement": "IC50", "setting": "[1]", "value": 4.6, "unit": "µM"},
      {"measurement": "Activity", "setting": "Rattus norvegicus [8]", "value": "inactive"},
      {"measurement": "Activity", "setting": "Rattus norvegicus [9]", "value": "inactive"},
      {"measurement": "Activity", "setting": "Rattus norvegicus [10]", "value": 367.9, "unit": "mg/dL"}
    ]}
  ]
}
